Reference: ChEMBL document CHEMBL1142400, “An updated steroid benchmark set and its application in the discovery of novel nanomolar ligands of sex hormone-binding globulin” (J Med Chem, 2008)

These compounds were tested against T1, Sex hormone-binding globulin (Homo sapiens, UniProt P04278) (assay: Displacement of [3H]5alpha dihydrotestosterone from human sex hormone binding globulin).
T1 sequence (P04278 whole entry): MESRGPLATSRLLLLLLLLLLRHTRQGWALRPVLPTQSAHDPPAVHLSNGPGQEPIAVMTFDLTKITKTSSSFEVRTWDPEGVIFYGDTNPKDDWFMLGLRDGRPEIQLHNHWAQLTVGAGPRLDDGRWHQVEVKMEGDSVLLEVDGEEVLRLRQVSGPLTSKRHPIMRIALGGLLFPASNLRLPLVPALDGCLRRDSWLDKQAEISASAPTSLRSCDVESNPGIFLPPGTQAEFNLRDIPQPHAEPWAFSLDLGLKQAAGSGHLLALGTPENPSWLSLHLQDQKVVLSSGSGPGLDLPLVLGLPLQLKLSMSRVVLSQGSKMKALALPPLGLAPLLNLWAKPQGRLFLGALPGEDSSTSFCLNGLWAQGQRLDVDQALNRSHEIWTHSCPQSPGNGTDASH

| SMILES | Kd [nM] |
| --- | --- |
| CC(=O)O[C@]1(C(C)=O)CC[C@H]2[C@@H]3C[C@H](C)C4=CC(=O)CC[C@]4(C)[C@H]3CC[C@@]21C [MEDROXYPROGESTERONE ACETATE] | 631 |
| C[C@]12CCC(=O)C[C@@H]1CC[C@@H]1[C@@H]2CC[C@@]2(C)[C@H]1CC[C@]2(C)O [MESTANOLONE] | 1.55 |
| C[C@H]1CC(=O)C[C@@H]2CC[C@H]3[C@@H]4CC[C@H](O)[C@@]4(C)CC[C@@H]3[C@]21C [MESTEROLONE] | 0.251 |
| C[C@]12CCC(=O)C=C1CC[C@@H]1[C@@H]2CC[C@@]2(C)[C@H]1CC[C@]2(C)O [METHYLTESTOSTERONE] | 3.72 |
| C[C@]12CC[C@H]3[C@@H](CCC4=CC(=O)CC[C@@H]43)[C@@H]1CC[C@@H]2O [NANDROLONE] | 501 |
| C#C[C@]1(O)CC[C@H]2[C@@H]3CCC4=CC(=O)CC[C@@H]4[C@H]3CC[C@@]21C [NORETHINDRONE] | 10.7 |
| C[C@]12CC[C@H](O)CC1=CC[C@@H]1[C@@H]2CC[C@]2(C)C(=O)CC[C@@H]12 [PRASTERONE] | 14.5 |
| CC(=O)[C@H]1CC[C@H]2[C@@H]3CC=C4C[C@@H](O)CC[C@]4(C)[C@H]3CC[C@]12C [PREGNENOLONE] | 70.8 |
| CC(=O)[C@H]1CC[C@H]2[C@@H]3CCC4=CC(=O)CC[C@]4(C)[C@H]3CC[C@]12C [PROGESTERONE] | 115 |
| C[C@]12CCC(=O)C[C@@H]1CC[C@@H]1[C@@H]2CC[C@]2(C)[C@@H](O)CC[C@@H]12 [STANOLONE] | 0.182 |
| C[C@]12CC[C@H]3[C@@H](CCC4=CC(=O)CC[C@@]43C)[C@@H]1CC[C@@H]2O [TESTOSTERONE] | 0.631 |
